Source: ChEMBL document CHEMBL3352742, “Synthesis, molecular docking and biological evaluation of coumarin derivatives containing piperazine skeleton as potential antibacterial agents” (Bioorg Med Chem, 2014)
In brackets after ≈: the same amount, converted by molar mass.

How the values were obtained:
[1] = tested on: Staphylococcus aureus; experiment: Antibacterial against Staphylococcus aureus ATCC 25923 after 24 hrs by two-fold serial dilution method; format: functional; details: ATCC 25923, 24 h
[2] = tested on: Pseudomonas aeruginosa; experiment: Antibacterial against Pseudomonas aeruginosa ATCC 27853 after 24 hrs by two-fold serial dilution method; format: functional; details: ATCC 27853, 24 h
[3] = tested on: Escherichia coli; experiment: Antibacterial against Escherichia coli ATCC 25922 after 24 hrs by two-fold serial dilution method; format: functional; details: ATCC 25922, 24 h
[4] = tested on: Bacillus subtilis; experiment: Antibacterial against Bacillus subtilis ATCC 530 after 24 hrs by two-fold serial dilution method; format: functional; details: ATCC 530, 24 h
[5] = Inhibition of Staphylococcus aureus FabI assessed as oxidation of NADH to NAD+ by spectrophotometrically
[6] = Toxicity in human erythrocyte assessed as hemolysis by measuring hemoglobin release after 3 hrs; format: cell-based
[7] = Cytotoxicity against human macrophages assessed as cell viability after 24 hrs by MTT assay; format: functional, cell-based; details: Macrophage

Row | Compound | MIC [1] | MIC [2] | MIC [3] | MIC [4] | IC50 [5] | LC30 [6] | IC50 [7]
1 | O=C(COc1cc(=O)oc2ccccc12)N1CCN(c2cccc(C(F)(F)F)c2)CC1 | 1.08 µg/mL (≈ 2.5 µM) | > 50 µg/mL | > 50 µg/mL | 0.916 µg/mL (≈ 2.12 µM) | 1.82 µM | > 10 µg/mL | 188 µM
2 | O=C(COc1cc(=O)oc2ccccc12)N1CCN(c2ccc(Cl)cc2)CC1 | > 50 µg/mL | > 50 µg/mL | > 50 µg/mL | 15.8 µg/mL (≈ 39.5 µM) | 35.5 µM |  | 
3 | O=C(COc1cc(=O)oc2ccccc12)N1CCN(c2ccc(F)cc2)CC1 | 29.1 µg/mL (≈ 76.1 µM) | > 50 µg/mL | > 50 µg/mL | 34.8 µg/mL (≈ 91 µM) | 37.6 µM |  | 
4 | COc1ccccc1N1CCN(C(=O)COc2cc(=O)oc3ccccc23)CC1 | 8.19 µg/mL (≈ 20.8 µM) | > 50 µg/mL | > 50 µg/mL | 11 µg/mL (≈ 27.8 µM) | 7.15 µM | > 10 µg/mL | 164 µM
5 | O=C(COc1cc(=O)oc2ccccc12)N1CCN(c2ccccc2F)CC1 | > 50 µg/mL | > 50 µg/mL | > 50 µg/mL | 31.3 µg/mL (≈ 81.9 µM) | 43.2 µM |  | 
6 | O=C(COc1cc(=O)oc2ccccc12)N1CCN(c2ccccc2)CC1 | 41.5 µg/mL (≈ 114 µM) | > 50 µg/mL | 33.6 µg/mL (≈ 92.3 µM) | > 50 µg/mL | 45.5 µM |  | 
7 | COc1ccccc1N1CCN(CC(O)COc2cc(=O)oc3ccccc23)CC1 (stereo not drawn) | 2.52 µg/mL (≈ 6.15 µM) | 49.8 µg/mL (≈ 121 µM) | > 50 µg/mL | 3.88 µg/mL (≈ 9.46 µM) | 5.54 µM | > 10 µg/mL | 256 µM
8 | COc1ccc(N2CCN(CC(O)COc3cc(=O)oc4ccccc34)CC2)cc1 (stereo not drawn) | 0.355 µg/mL (≈ 0.865 µM) | > 50 µg/mL | > 50 µg/mL | 0.236 µg/mL (≈ 0.575 µM) | 0.57 µM | > 10 µg/mL | 198 µM
9 | O=c1cc(OCC(O)CN2CCN(c3ccccc3F)CC2)c2ccccc2o1 (stereo not drawn) | > 50 µg/mL | > 50 µg/mL | > 50 µg/mL | > 50 µg/mL | 71.1 µM |  | 
10 | COc1ccc(N2CCN(C(=O)COc3cc(=O)oc4ccccc34)CC2)cc1 | 0.327 µg/mL (≈ 0.829 µM) | > 50 µg/mL | > 50 µg/mL | 0.861 µg/mL (≈ 2.18 µM) | 0.83 µM | > 10 µg/mL | 192 µM
11 | O=C(COc1cc(=O)oc2ccccc12)N1CCN(c2ccc([N+](=O)[O-])cc2)CC1 | > 50 µg/mL | > 50 µg/mL | > 50 µg/mL | 1.94 µg/mL (≈ 4.73 µM) | 11.4 µM |  | 
12 | O=c1cc(OCC(O)CN2CCN(c3ccc(Cl)c(Cl)c3)CC2)c2ccccc2o1 (stereo not drawn) | > 50 µg/mL | > 50 µg/mL | > 50 µg/mL | 0.339 µg/mL (≈ 0.754 µM) | 22.3 µM |  | 
13 | O=c1cc(OCC(O)CN2CCN(c3cccc(Cl)c3)CC2)c2ccccc2o1 (stereo not drawn) | > 50 µg/mL | > 50 µg/mL | 40.6 µg/mL (≈ 97.8 µM) | 26 µg/mL (≈ 62.6 µM) | 31.4 µM |  | 
14 | O=C(COc1cc(=O)oc2ccccc12)N1CCN(c2cccc(Cl)c2Cl)CC1 | 23.2 µg/mL (≈ 53.6 µM) | > 50 µg/mL | > 50 µg/mL | 4.51 µg/mL (≈ 10.4 µM) | 8.41 µM | > 10 µg/mL | 223 µM
15 | O=C(COc1cc(=O)oc2ccccc12)N1CCN(c2ccccc2Cl)CC1 | 28.5 µg/mL (≈ 71.4 µM) | > 50 µg/mL | > 50 µg/mL | 7.18 µg/mL (≈ 18 µM) | 21.9 µM |  | 
16 | O=c1cc(OCC(O)CN2CCN(c3cccc(C(F)(F)F)c3)CC2)c2ccccc2o1 (stereo not drawn) | 0.957 µg/mL (≈ 2.13 µM) | > 50 µg/mL | > 50 µg/mL | 1.08 µg/mL (≈ 2.4 µM) | 0.97 µM | > 10 µg/mL | 172 µM
17 | O=C(COc1cc(=O)oc2ccccc12)N1CCN(c2ccc(Cl)c(Cl)c2)CC1 | > 50 µg/mL | 48.1 µg/mL (≈ 111 µM) | > 50 µg/mL | 1.86 µg/mL (≈ 4.29 µM) | 19.8 µM |  | 
18 | O=c1cc(OCC(O)CN2CCN(Cc3ccccc3)CC2)c2ccccc2o1 (stereo not drawn) | 23 µg/mL (≈ 58.4 µM) | > 50 µg/mL | > 50 µg/mL | > 50 µg/mL | 41.3 µM |  | 
19 | COc1cccc(N2CCN(C(=O)COc3cc(=O)oc4ccccc34)CC2)c1 | 0.837 µg/mL (≈ 2.12 µM) | > 50 µg/mL | > 50 µg/mL | 6.96 µg/mL (≈ 17.6 µM) | 4.62 µM | > 10 µg/mL | 141 µM
20 | O=c1cc(OCC(O)CN2CCN(c3ccc([N+](=O)[O-])cc3)CC2)c2ccccc2o1 (stereo not drawn) | 2.4 µg/mL (≈ 5.63 µM) | 33 µg/mL (≈ 77.6 µM) | > 50 µg/mL | 3.65 µg/mL (≈ 8.58 µM) | 3.82 µM | > 10 µg/mL | 153 µM
21 | O=C(COc1cc(=O)oc2ccccc12)N1CCN(c2cccc(Cl)c2)CC1 | > 50 µg/mL | 46 µg/mL (≈ 115 µM) | > 50 µg/mL | 2.94 µg/mL (≈ 7.37 µM) | 26.6 µM |  | 
22 | O=c1cc(OCC(O)CN2CCN(c3ccccc3)CC2)c2ccccc2o1 (stereo not drawn) | > 50 µg/mL | > 50 µg/mL | > 50 µg/mL | 37.9 µg/mL (≈ 99.7 µM) | 47.8 µM |  | 
23 | O=c1cc(OCC(O)CN2CCN(c3cccc(Cl)c3Cl)CC2)c2ccccc2o1 (stereo not drawn) | 26 µg/mL (≈ 57.8 µM) | > 50 µg/mL | > 50 µg/mL | 18.2 µg/mL (≈ 40.4 µM) | 12.5 µM |  | 
24 | Cc1ccc(N2CCN(CC(O)COc3cc(=O)oc4ccccc34)CC2)c(C)c1 (stereo not drawn) | 1.44 µg/mL (≈ 3.53 µM) | > 50 µg/mL | > 50 µg/mL | 2.86 µg/mL (≈ 6.99 µM) | 6.23 µM | > 10 µg/mL | 127 µM
25 | Cc1ccc(N2CCN(C(=O)COc3cc(=O)oc4ccccc34)CC2)c(C)c1 | 46.4 µg/mL (≈ 118 µM) | > 50 µg/mL | > 50 µg/mL | 34.4 µg/mL (≈ 87.7 µM) | 42.5 µM |  | 
26 | CC1(C)S[C@@H]2[C@H](NC(=O)Cc3ccccc3)C(=O)N2[C@H]1C(=O)O [PENICILLIN G] | 1.69 µg/mL (≈ 5.04 µM) | 22 µg/mL (≈ 65.7 µM) | 22.4 µg/mL (≈ 66.9 µM) | 0.752 µg/mL (≈ 2.25 µM) |  | > 10 µg/mL | 186 µM
27 | O=c1cc(OCC(O)CN2CCN(c3ccccc3Cl)CC2)c2ccccc2o1 (stereo not drawn) | 11.6 µg/mL (≈ 28.1 µM) | > 50 µg/mL | > 50 µg/mL | 13.9 µg/mL (≈ 33.6 µM) | 17.7 µM |  | 
28 | COc1cccc(N2CCN(CC(O)COc3cc(=O)oc4ccccc34)CC2)c1 (stereo not drawn) | 1.83 µg/mL (≈ 4.46 µM) | 17.1 µg/mL (≈ 41.6 µM) | > 50 µg/mL | 0.612 µg/mL (≈ 1.49 µM) | 2.73 µM | > 10 µg/mL | 178 µM
29 | O=c1cc(OCC(O)CN2CCN(c3ccc(F)cc3)CC2)c2ccccc2o1 (stereo not drawn) | > 50 µg/mL | > 50 µg/mL | 40.4 µg/mL (≈ 101 µM) | > 50 µg/mL | 62.9 µM |  | 
